Source: patent US8828908B2, “Herbicidally active bicyclic 1,3-dione compounds” (Syngenta Limited, priority 2007, dated 2014)

What was measured:
Assay type in all cases: in vivo
[1] = system: Echinochloa crus-galli (ECHCG); assay: Example A post-emergence herbicidal glasshouse test; details: 312 h, evaluated after 13 days, 100=total damage to plant, 0=no damage
Method in brief: (§1)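 Spray application in 50:50 acetone/water with 0.5% Tween 20, pre-emergence at 1 day or post-emergence at 8 days after sowing. Evaluated visually at 13 days on a 0–100 damage scale.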

[2] = system: Avena fatua (AVEFA); assay: as above; details: 312 h, evaluated after 13 days, 100=total damage to plant, 0=no damage
Method in brief: as §1

[3] = system: Setaria faberi (SETFA); assay: as above; details: 312 h, evaluated after 13 days, 100=total damage to plant, 0=no damage
Method in brief: as §1

[4] = system: Alopecurus myosuroides (ALOMY); assay: as above; details: 312 h, evaluated after 13 days, 100=total damage to plant, 0=no damage
Method in brief: as §1

[5] = system: Amaranthus retroflexus (AMARE); assay: as above; details: 312 h, evaluated after 13 days, 100=total damage to plant, 0=no damage
Method in brief: as §1

[6] = system: Lolium perenne (LOLPE); assay: Example B pre-emergence herbicidal greenhouse test; details: 480 h, evaluated after 20 days, 100=total damage to plant, 0=no damage
Method in brief: (§2)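 Pots sown with test species were sprayed 1 day after sowing (pre-emergence) or at 10 days post-sowing (post-emergence) with the technical ingredient dissolved in acetone and diluted via emulsifier/solvent formulation. After 20 days (pre) or 15 days (post), effect was rated from 0 (no damage) to 100 (total damage).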

[7] = system: Echinochloa crus-galli (ECHCG); assay: Example B pre-emergence herbicidal greenhouse test; details: 480 h, evaluated after 20 days, 100=total damage to plant, 0=no damage
Method in brief: as §2

[8] = system: Avena fatua (AVEFA); assay: Example B pre-emergence herbicidal greenhouse test; details: 480 h, evaluated after 20 days, 100=total damage to plant, 0=no damage
Method in brief: as §2

[9] = system: Digitaria sanguinalis (DIGSA); assay: Example B pre-emergence herbicidal greenhouse test; details: 480 h, evaluated after 20 days, 100=total damage to plant, 0=no damage
Method in brief: as §2

[10] = system: Setaria faberi (SETFA); assay: Example B pre-emergence herbicidal greenhouse test; details: 480 h, evaluated after 20 days, 100=total damage to plant, 0=no damage
Method in brief: as §2

[11] = system: Alopecurus myosuroides (ALOMY); assay: Example B pre-emergence herbicidal greenhouse test; details: 480 h, evaluated after 20 days, 100=total damage to plant, 0=no damage
Method in brief: as §2

[12] = system: Lolium perenne (LOLPE); assay: Example B post-emergence herbicidal greenhouse test; details: 360 h, evaluated after 15 days, 100=total damage to plant, 0=no damage
Method in brief: as §2

[13] = system: Echinochloa crus-galli (ECHCG); assay: as above; details: 360 h, evaluated after 15 days, 100=total damage to plant, 0=no damage
Method in brief: as §2

[14] = system: Avena fatua (AVEFA); assay: as above; details: 360 h, evaluated after 15 days, 100=total damage to plant, 0=no damage
Method in brief: as §2

[15] = system: Digitaria sanguinalis (DIGSA); assay: as above; details: 360 h, evaluated after 15 days, 100=total damage to plant, 0=no damage
Method in brief: as §2

[16] = system: Setaria faberi (SETFA); assay: as above; details: 360 h, evaluated after 15 days, 100=total damage to plant, 0=no damage
Method in brief: as §2

[17] = system: Alopecurus myosuroides (ALOMY); assay: as above; details: 360 h, evaluated after 15 days, 100=total damage to plant, 0=no damage
Method in brief: as §2

[18] = system: Echinochloa crus-galli (ECHCG); assay: Example A pre-emergence herbicidal glasshouse test; details: 312 h, Rate 250 g/ha, evaluated after 13 days, 100=total damage to plant, 0=no damage to plant
Method in brief: as §1

[19] = system: Avena fatua (AVEFA); assay: Example A pre-emergence herbicidal glasshouse test; details: 312 h, Rate 250 g/ha, evaluated after 13 days, 100=total damage to plant, 0=no damage to plant
Method in brief: as §1

[20] = system: Setaria faberi (SETFA); assay: Example A pre-emergence herbicidal glasshouse test; details: 312 h, Rate 250 g/ha, evaluated after 13 days, 100=total damage to plant, 0=no damage to plant
Method in brief: as §1

[21] = system: Alopecurus myosuroides (ALOMY); assay: Example A pre-emergence herbicidal glasshouse test; details: 312 h, Rate 250 g/ha, evaluated after 13 days, 100=total damage to plant, 0=no damage to plant
Method in brief: as §1

[22] = system: Amaranthus retroflexus (AMARE); assay: Example A pre-emergence herbicidal glasshouse test; details: 312 h, Rate 250 g/ha, evaluated after 13 days, 100=total damage to plant, 0=no damage to plant
Method in brief: as §1

Row | SMILES | pest or weed control at 250 g/ha [1] | pest or weed control at 250 g/ha [2] | pest or weed control at 250 g/ha [3] | pest or weed control at 250 g/ha [4] | pest or weed control at 250 g/ha [5] | pest or weed control at 250 g/ha [6] | pest or weed control at 250 g/ha [7] | pest or weed control at 250 g/ha [8] | pest or weed control at 250 g/ha [9] | pest or weed control at 250 g/ha [10] | pest or weed control at 250 g/ha [11] | pest or weed control at 125 g/ha [12] | pest or weed control at 125 g/ha [13] | pest or weed control at 125 g/ha [14] | pest or weed control at 125 g/ha [15] | pest or weed control at 125 g/ha [16] | pest or weed control at 125 g/ha [17] | pest or weed control at 250 g/ha [18] | pest or weed control at 250 g/ha [19] | pest or weed control at 250 g/ha [20] | other results
1 | CCc1ccc(-c2ccc(Cl)c(C)c2)cc1C1=C(O)[C@H]2CC[C@H](C2)C1=O [Compound T32, 3-(4′-chloro-4-ethyl-3′-methylbiphen-3-yl)bicyclo[3.2.1]octane-2,4-dione] | 100% | 0% | 90% | 60% | 0% | 90% | 100% | 10% | 100% | 60% | 90% | 0% | 100% | 10% | 70% | 30% | 30% | 100% | 40% | 20% | pest or weed control at 250 g/ha [21]: 30%; pest or weed control at 250 g/ha [22]: 0%
2 | CCc1ccc(-c2ccc(Cl)cc2Cl)cc1C1=C(O)[C@H]2CC[C@H](C2)C1=O [Compound T44, 3-(2′,4′-dichloro-4-ethylbiphen-3-yl)bicyclo[3.2.1]octane-2,4-dione] | 100% | 90% | 100% | 90% | 0% | 10% | 50% | 10% | 80% | 70% | 0% | 30% | 100% | 90% | 100% | 100% | 60% | 90% | 20% | 100% | pest or weed control at 250 g/ha [21]: 50%; pest or weed control at 250 g/ha [22]: 0%
3 | CCc1ccc(-c2ccc(Cl)cc2)cc1C1=C(O)[C@H]2CC[C@H](CC2)C1=O [Compound T54, 3-(4′-chloro-4-ethylbiphen-3-yl)bicyclo[3.2.2]nonane-2,4-dione] | 100% | 100% | 100% | 100% | 0% | 100% | 100% | 50% | 100% | 90% | 70% | 60% | 100% | 70% | 100% | 100% | 90% | 100% | 90% | 100% | pest or weed control at 250 g/ha [21]: 90%; pest or weed control at 250 g/ha [22]: 40%
